Like-named read-outs stand apart in the source and are kept apart here.
Legend:
Format in all cases: cell-based
[1] = biological target: T1, human A2A receptor (Homo sapiens, UniProt P29274); assay: cAMP HTRF functional assay, recombinant HEK293 cells expressing human A2A receptor, agonist NECA
T1 construct: expressed in transfected cells; host or cells: HEK293
Experimental: (§1) The functional activities of human A2A, A2B, A1 and A3 receptors were determined by quantification of cAMP, being the second messenger for adenosine receptors.
(§2) Obtained raw data were normalized against the inhibitor control and the neural control (DMSO) and the normalized data were fitted using GeneData software.

[2] = biological target: T2, human A1 receptor (Homo sapiens, UniProt P30542); assay: cAMP HTRF functional assay, recombinant CHO cells expressing human A1 receptor, forskolin and agonist CPA
T2 construct: expressed in transfected cells; host or cells: CHO
T2 sequence (P30542 1-326): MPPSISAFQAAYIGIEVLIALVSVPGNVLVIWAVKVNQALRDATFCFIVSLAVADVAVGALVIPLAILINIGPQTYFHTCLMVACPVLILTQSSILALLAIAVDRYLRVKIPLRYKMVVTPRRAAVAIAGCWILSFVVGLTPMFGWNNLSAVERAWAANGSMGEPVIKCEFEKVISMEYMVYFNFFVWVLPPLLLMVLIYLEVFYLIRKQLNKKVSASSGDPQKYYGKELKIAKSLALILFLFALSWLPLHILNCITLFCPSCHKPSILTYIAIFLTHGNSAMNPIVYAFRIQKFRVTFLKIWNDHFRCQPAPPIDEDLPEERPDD
Experimental: as §1
For human A1 and A3 receptors, recombinant CHO cells, expressing either A1 or A3-receptor, were used. As both receptors couple to Gi proteins, the assay protocol was adapted:
Cells were seeded into 384-well plates, forskolin, test compounds and agonists (CPA for A1- and IB-MECA for A3-receptor) were added. After 30 min incubation, HTRF reagents (cAMP dynamic 2, Cis Bio) were added and the cellular cAMP levels were determined using the ENVISION (Perkin Elmer) plate reader.
as §2

[3] = biological target: T3, A2B receptors (Homo sapiens, UniProt P29275); assay: cAMP HTRF functional assay, recombinant HEK293 cells expressing human A2B receptor, agonist NECA; design: expressed in transfected cells; host or cells: HEK293
T3 sequence (P29275 1-332): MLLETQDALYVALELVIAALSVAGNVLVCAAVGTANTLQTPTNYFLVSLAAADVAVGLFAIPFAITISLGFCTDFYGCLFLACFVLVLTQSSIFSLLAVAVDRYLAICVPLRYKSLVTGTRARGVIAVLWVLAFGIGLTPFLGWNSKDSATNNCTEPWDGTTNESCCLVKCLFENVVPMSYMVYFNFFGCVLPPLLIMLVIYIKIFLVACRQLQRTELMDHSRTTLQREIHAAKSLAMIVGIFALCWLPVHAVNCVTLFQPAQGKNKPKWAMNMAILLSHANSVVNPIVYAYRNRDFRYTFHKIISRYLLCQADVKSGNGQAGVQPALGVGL
Experimental: as §1, §2

T1 sequence (P29274 whole entry): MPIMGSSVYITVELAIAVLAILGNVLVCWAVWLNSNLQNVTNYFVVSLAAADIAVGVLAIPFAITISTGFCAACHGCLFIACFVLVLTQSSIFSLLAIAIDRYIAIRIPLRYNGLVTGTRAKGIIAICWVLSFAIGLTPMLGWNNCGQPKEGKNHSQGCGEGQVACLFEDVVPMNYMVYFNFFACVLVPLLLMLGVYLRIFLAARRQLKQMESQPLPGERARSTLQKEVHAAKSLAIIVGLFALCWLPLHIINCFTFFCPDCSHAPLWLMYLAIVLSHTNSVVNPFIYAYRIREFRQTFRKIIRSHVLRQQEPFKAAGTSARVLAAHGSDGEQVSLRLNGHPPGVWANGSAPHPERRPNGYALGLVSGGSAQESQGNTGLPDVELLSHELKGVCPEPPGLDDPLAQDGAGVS

IC50 [2] [nM] | IC50 [1] [nM] | IC50 [3] [nM] | Compound | IC50 ([1]; recombinant HEK293 cells, cAMP, agonist NECA) [nM]
> 1000 | < 100 | – | COc1ccc(C2CCOCC2)c2ncc(NC(=O)N3CC4(C3)CS(=O)(=O)C4)nc12 [compound 18] | –
> 1000 | < 10 | > 1000 | COc1ccc(C2CCOCC2)c2ncc(NC(=O)c3cnn(C)c3)nc12 [compound 68] | –
> 1000 | < 10 | < 1000 | COc1ccc(C2CCOCC2)c2ncc(NC(=O)c3cnc(C)s3)nc12 [compound 78] | –
– | < 10 | – | COc1ncc(C2CCOCC2)c2ncc(NC(=O)N3CCC(C)(CO)CC3)nc12 [compound 104, 4-Hydroxymethyl-4-methyl-piperidine-1-carboxylic acid [5-methoxy-8-(tetrahydro-pyran-4-yl)-pyrido[3,4-b]pyrazin-3-yl]-amide] | –
– | < 100 | – | CNC(=O)c1cc(-c2ccc(OC)c3nc(NC(=O)N4CCC(C)(O)CC4)cnc23)ccn1 [compound 115, 4-{2-[(4-hydroxy-4-methylpiperidine-1-carbonyl)amino]-8-methoxyquinoxalin-5-yl}-N-methylpyridine-2-carboxamide] | –

Further lines, the compound ahead of its results:

Compound | IC50 [2] [nM] | IC50 [1] [nM] | IC50 [3] [nM] | IC50 ([1]; recombinant HEK293 cells, cAMP, agonist NECA) [nM]
4-Hydroxy-4-methyl-piperidine-1-carboxylic acid (5-methoxy-8-phenyl-pyrido[3,4-b]pyrazin-3-yl)-amide [compound 15] | – | – | – | < 100
COc1ccc(-c2cccc(F)c2)c2ncc(NC(=O)N3CCC(C)(O)CC3)nc12 [compound 62] | < 1000 | < 100 | > 1000 | –
C#CCC1(O)CCN(C(=O)Nc2cnc3c(C4CCOCC4)cnc(OC)c3n2)CC1 [compound 103, 4-Hydroxy-4-prop-2-ynyl-piperidine-1-carboxylic acid [5-methoxy-8-(tetrahydro-pyran-4-yl)-pyrido[3,4-b]pyrazin-3-yl]-amide] | > 1000 | < 10 | > 1000 | –
COc1ccc(-c2cccnc2)c2nc(NC(=O)N3CCC(C)(O)CC3)cnc12 [compound 112, 4-hydroxy-N-[5-methoxy-8-(pyridin-3-yl)quinoxalin-2-yl]-4-methylpiperidine-1-carboxamide] | > 1000 | < 100 | – | –
COc1ccc(-c2cccc(F)c2F)c2ncc(NC(=O)c3cnc(C)o3)nc12 [compound 125, N-[5-(2,3-difluorophenyl)-8-methoxyquinoxalin-2-yl]-2-methyl-1,3-oxazole-5-carboxamide] | < 1000 | < 100 | – | –
COc1ccc(-c2ccccc2F)c2ncc(NC(=O)c3cnc(C)o3)nc12 [compound 129, N-[5-(2-fluorophenyl)-8-methoxyquinoxalin-2-yl]-2-methyl-1,3-oxazole-5-carboxamide] | – | < 10 | < 100 | –
COc1ccc(C2=CCOCC2)c2ncc(NC(=O)C3(C(=O)N(C)C)CC3)nc12 [compound 144, N′1-[5-(3,6-dihydro-2H-pyran-4-yl)-8-methoxyquinoxalin-2-yl]-N1,N1-dimethylcyclopropane-1,1-dicarboxamide] | > 1000 | < 100 | – | –
COc1ccc(C2=CCOCC2)c2ncc(NC(=O)C3(CN(C)C)CC3)nc12 [compound 145, N-[5-(3,6-dihydro-2H-pyran-4-yl)-8-methoxyquinoxalin-2-yl]-1-[(dimethylamino)methyl]cyclopropane-1-carboxamide] | > 1000 | < 100 | – | –
COc1ccc(C2=CCOCC2)c2ncc(NC(=O)c3nnc(C)s3)nc12 [compound 146, N-[5-(3,6-dihydro-2H-pyran-4-yl)-8-methoxyquinoxalin-2-yl]-5-methyl-1,3,4-thiadiazole-2-carboxamide] | > 1000 | < 100 | – | –
COc1ccc(-c2cnn(C(F)F)c2)c2ncc(NC(=O)N3CCC(C)(O)CC3)nc12 [compound 158, N-{5-[1-(difluoromethyl)-1H-pyrazol-4-yl]-8-methoxyquinoxalin-2-yl}-4-hydroxy-4-methylpiperidine-1-carboxamide] | > 1000 | < 100 | – | –
COc1ccc(N2CCCOCC2)c2ncc(NC(=O)C3CC3)nc12 [compound 161, N-[8-methoxy-5-(1,4-oxazepan-4-yl)quinoxalin-2-yl]cyclopropanecarboxamide] | > 1000 | < 100 | – | –

From patent US11192899B2 (MERCK PATENT GMBH, priority 2017, dated 2021)
